Source: the supplement of paper PMC10627819

Columns and labels:
[1] = system: B. subtilis 168; experiment: fitness (endpoint OD595 vs no drug) (fraction); higher = more growth
Outline: (§1)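 Volumes were 30 µl per well, or 55 µl for S. pneumoniae, in 384-well plates inoculated at OD595 0.01. Media were TSB, LB Lennox or CY at 37 °C, and OD595 was read every 30 min for 14 h with first-reading background subtraction. Fitness is the ratio of optical density at stationary-phase entry to the robust mean of no-drug controls. That ratio is capped at 1.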

[2] = system: S. aureus DSM 20231; experiment: as above
Outline: as §1

[3] = system: S. aureus Newman; experiment: as above
Outline: as §1

[4] = system: S. pneumoniae D39V; experiment: as above
Outline: as §1

[5] = system: B. subtilis 168; experiment: Bliss interaction score (quartile over a dose matrix) (fitness difference); higher = more antagonism (negative = synergy)
Outline: (§2)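 Fitness was defined as normalised growth: OD595 at the start of stationary phase divided by the plate's robust no-drug mean and capped at 1. Single-drug fitness was inferred from combination measurements. The Bliss score is observed fitness minus the product of the single-drug values, summarised by quartiles across technical, biological and donor/recipient replicates.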

[6] = system: S. aureus DSM 20231; experiment: as above
Outline: as §2

[7] = system: S. aureus Newman; experiment: as above
Outline: as §2

[8] = system: S. pneumoniae D39V; experiment: as above
Outline: as §2
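Throughout, for Bliss interaction score (quartile over a dose matrix): first quartile when negative (synergy) and third quartile when positive (antagonism).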

Cc1ncc([N+](=O)[O-])n1CCO [Metronidazole] + COc1c(N2C[C@@H]3CCCN[C@@H]3C2)c(F)cc2c(=O)c(C(=O)O)cn(C3CC3)c12 [Moxifloxacin]
Details | fitness
[1], first compound 0.625 µg/mL, partner 0.0312 µg/mL | 0.0445
[1], first compound 0.625 µg/mL, partner 0.0625 µg/mL | 0.0572
[1], first compound 0.625 µg/mL, partner 0.125 µg/mL | 0.045
[1], first compound 0.625 µg/mL, partner 2 µg/mL | 0.0237
[1], first compound 0.625 µg/mL, partner 4 µg/mL | 0.0328
[1], first compound 0.625 µg/mL, partner 8 µg/mL | 0.0161
[1], first compound 1.25 µg/mL, partner 0.0312 µg/mL | 0.0649
[1], first compound 1.25 µg/mL, partner 0.0625 µg/mL | 0.0674
[1], first compound 1.25 µg/mL, partner 0.125 µg/mL | 0.0461
[1], first compound 1.25 µg/mL, partner 2 µg/mL | 0.0257
[1], first compound 1.25 µg/mL, partner 4 µg/mL | 0.0355
[1], first compound 1.25 µg/mL, partner 8 µg/mL | 0.022
[1], first compound 2.5 µg/mL, partner 0.0312 µg/mL | 0.0682
[1], first compound 2.5 µg/mL, partner 0.0625 µg/mL | 0.0527
[1], first compound 2.5 µg/mL, partner 0.125 µg/mL | 0.0558
[1], first compound 2.5 µg/mL, partner 2 µg/mL | 0.0301
[1], first compound 2.5 µg/mL, partner 4 µg/mL | 0.0306
[1], first compound 2.5 µg/mL, partner 8 µg/mL | 0.0188
[2], first compound 0.625 µg/mL, partner 0.0075 µg/mL | 0.835
[2], first compound 0.625 µg/mL, partner 0.015 µg/mL | 0.779
[2], first compound 0.625 µg/mL, partner 0.03 µg/mL | 0.635
[2], first compound 1.25 µg/mL, partner 0.0075 µg/mL | 0.834
[2], first compound 1.25 µg/mL, partner 0.015 µg/mL | 0.807
[2], first compound 1.25 µg/mL, partner 0.03 µg/mL | 0.633
[2], first compound 2.5 µg/mL, partner 0.0075 µg/mL | 0.883
[2], first compound 2.5 µg/mL, partner 0.015 µg/mL | 0.828
[2], first compound 2.5 µg/mL, partner 0.03 µg/mL | 0.652
[3], first compound 0.625 µg/mL, partner 0.0075 µg/mL | 0.77
[3], first compound 0.625 µg/mL, partner 0.015 µg/mL | 0.62
[3], first compound 0.781 µg/mL, partner 0.0075 µg/mL | 0.691
[3], first compound 0.781 µg/mL, partner 0.015 µg/mL | 0.537
[3], first compound 0.781 µg/mL, partner 0.03 µg/mL | 0.0945
[3], first compound 1.25 µg/mL, partner 0.0075 µg/mL | 0.811
[3], first compound 1.25 µg/mL, partner 0.015 µg/mL | 0.598
[3], first compound 1.562 µg/mL, partner 0.0075 µg/mL | 0.689
[3], first compound 1.562 µg/mL, partner 0.015 µg/mL | 0.531
[3], first compound 1.562 µg/mL, partner 0.03 µg/mL | 0.0833
[3], first compound 2.5 µg/mL, partner 0.0075 µg/mL | 0.757
[3], first compound 2.5 µg/mL, partner 0.015 µg/mL | 0.596
[3], first compound 3.124 µg/mL, partner 0.0075 µg/mL | 0.725
[3], first compound 3.124 µg/mL, partner 0.015 µg/mL | 0.525
[3], first compound 3.124 µg/mL, partner 0.03 µg/mL | 0.0829
[4], first compound 1.073 µg/mL, partner 0.0037 µg/mL | 0.834
[4], first compound 1.073 µg/mL, partner 0.0075 µg/mL | 0.85
[4], first compound 1.073 µg/mL, partner 0.015 µg/mL | 0.879
[4], first compound 1.25 µg/mL, partner 0.005 µg/mL | 0.991
[4], first compound 1.25 µg/mL, partner 0.01 µg/mL | ≥ 1
[4], first compound 1.25 µg/mL, partner 0.02 µg/mL | 0.975
[4], first compound 2.145 µg/mL, partner 0.0037 µg/mL | 0.689
[4], first compound 2.145 µg/mL, partner 0.0075 µg/mL | 0.707
[4], first compound 2.145 µg/mL, partner 0.015 µg/mL | 0.808
[4], first compound 2.5 µg/mL, partner 0.005 µg/mL | ≥ 1
[4], first compound 2.5 µg/mL, partner 0.01 µg/mL | ≥ 1
[4], first compound 2.5 µg/mL, partner 0.02 µg/mL | ≥ 1
[4], first compound 4.29 µg/mL, partner 0.0037 µg/mL | 0.742
[4], first compound 4.29 µg/mL, partner 0.0075 µg/mL | 0.787
[4], first compound 4.29 µg/mL, partner 0.015 µg/mL | 0.84
[4], first compound 5 µg/mL, partner 0.005 µg/mL | ≥ 1
[4], first compound 5 µg/mL, partner 0.01 µg/mL | 0.999
[4], first compound 5 µg/mL, partner 0.02 µg/mL | 0.983

fitness, [2], one replicate
Details | first compound 0.625 µg/mL | first compound 1.25 µg/mL | first compound 2.5 µg/mL
partner 0.06 µg/mL | 0.703 | 0.666 | 0.703
partner 0.12 µg/mL | 0.498 | 0.486 | 0.541

Details | Bliss interaction score
[5] | -0.015
[6] | -0.063
[7] | -0.0493
[8] | 0.0628

CO/N=C(\C(=O)N[C@@H]1C(=O)N2C(C(=O)O)=C(COC(C)=O)CS[C@H]12)c1csc(N)n1 [Cefotaxime] + Cc1onc(-c2ccccc2)c1C(=O)N[C@@H]1C(=O)N2[C@@H]1SC(C)(C)[C@@H]2C(=O)O [Oxacillin]
one replicate
Details | fitness
[1], first compound 0.00775 µg/mL, partner 0.0078 µg/mL | 0.82
[1], first compound 0.00775 µg/mL, partner 0.0155 µg/mL | 0.789
[1], first compound 0.00775 µg/mL, partner 0.031 µg/mL | 0.741
[1], first compound 0.0155 µg/mL, partner 0.0078 µg/mL | 0.644
[1], first compound 0.0155 µg/mL, partner 0.0155 µg/mL | 0.664
[1], first compound 0.0155 µg/mL, partner 0.031 µg/mL | 0.548
[1], first compound 0.031 µg/mL, partner 0.0078 µg/mL | 0.482
[1], first compound 0.031 µg/mL, partner 0.0155 µg/mL | 0.537
[1], first compound 0.031 µg/mL, partner 0.031 µg/mL | 0.395
[1], first compound 0.0625 µg/mL, partner 0.075 µg/mL | 0.0512
[1], first compound 0.0625 µg/mL, partner 0.15 µg/mL | 0.0585
[1], first compound 0.0625 µg/mL, partner 0.3 µg/mL | 0.0527
[1], first compound 0.125 µg/mL, partner 0.075 µg/mL | 0.0627
[1], first compound 0.125 µg/mL, partner 0.15 µg/mL | 0.0636
[1], first compound 0.125 µg/mL, partner 0.3 µg/mL | 0.0489
[1], first compound 0.25 µg/mL, partner 0.075 µg/mL | 0.0575
[1], first compound 0.25 µg/mL, partner 0.15 µg/mL | 0.0677
[1], first compound 0.25 µg/mL, partner 0.3 µg/mL | 0.0596
[3], first compound 0.039 µg/mL, partner 0.0156 µg/mL | 0.689
[3], first compound 0.039 µg/mL, partner 0.0312 µg/mL | 0.662
[3], first compound 0.039 µg/mL, partner 0.0625 µg/mL | 0.629
[3], first compound 0.312 µg/mL, partner 0.0156 µg/mL | 0.317
[3], first compound 0.312 µg/mL, partner 0.0312 µg/mL | 0.224
[3], first compound 0.312 µg/mL, partner 0.0625 µg/mL | 0.181

Details | fitness
[1], first compound 0.5 µg/mL, partner 0.002 µg/mL | 0.272
[1], first compound 0.5 µg/mL, partner 0.008 µg/mL | 0.249
[1], first compound 1 µg/mL, partner 0.002 µg/mL | 0.158
[1], first compound 1 µg/mL, partner 0.004 µg/mL | 0.118
[1], first compound 1 µg/mL, partner 0.008 µg/mL | 0.133
[1], first compound 2 µg/mL, partner 0.002 µg/mL | 0.115
[1], first compound 2 µg/mL, partner 0.004 µg/mL | 0.114
[1], first compound 2 µg/mL, partner 0.008 µg/mL | 0.113
[2], first compound 0.039 µg/mL, partner 0.0156 µg/mL | 0.696
[2], first compound 0.039 µg/mL, partner 0.0312 µg/mL | 0.624
[2], first compound 0.039 µg/mL, partner 0.0625 µg/mL | 0.632
[2], first compound 0.078 µg/mL, partner 0.0156 µg/mL | 0.681
[2], first compound 0.078 µg/mL, partner 0.0312 µg/mL | 0.655
[2], first compound 0.078 µg/mL, partner 0.0625 µg/mL | 0.639
[2], first compound 0.156 µg/mL, partner 0.0156 µg/mL | 0.599
[2], first compound 0.156 µg/mL, partner 0.0312 µg/mL | 0.623
[2], first compound 0.156 µg/mL, partner 0.0625 µg/mL | 0.655
[2], first compound 0.312 µg/mL, partner 0.0156 µg/mL | 0.593
[2], first compound 0.312 µg/mL, partner 0.0312 µg/mL | 0.594
[2], first compound 0.312 µg/mL, partner 0.0625 µg/mL | 0.478
[3], first compound 0.078 µg/mL, partner 0.0156 µg/mL | 0.745
[3], first compound 0.078 µg/mL, partner 0.0312 µg/mL | 0.627
[3], first compound 0.078 µg/mL, partner 0.0625 µg/mL | 0.531
[3], first compound 0.156 µg/mL, partner 0.0156 µg/mL | 0.6
[3], first compound 0.156 µg/mL, partner 0.0312 µg/mL | 0.555
[3], first compound 0.156 µg/mL, partner 0.0625 µg/mL | 0.38
[3], first compound 0.625 µg/mL, partner 0.0156 µg/mL | 0.0697
[3], first compound 0.625 µg/mL, partner 0.0312 µg/mL | 0.0379
[3], first compound 0.625 µg/mL, partner 0.0625 µg/mL | 0.0206
[3], first compound 1.25 µg/mL, partner 0.0156 µg/mL | 0.0601
[3], first compound 1.25 µg/mL, partner 0.0312 µg/mL | 0.0503
[3], first compound 1.25 µg/mL, partner 0.0625 µg/mL | 0.0594
[3], first compound 2.5 µg/mL, partner 0.0156 µg/mL | 0.0599
[3], first compound 2.5 µg/mL, partner 0.0312 µg/mL | 0.0551
[3], first compound 2.5 µg/mL, partner 0.0625 µg/mL | 0.0574
[4], first compound 0.0018 µg/mL, partner 0.005 µg/mL | 0.999
[4], first compound 0.0018 µg/mL, partner 0.01 µg/mL | 0.983
[4], first compound 0.0018 µg/mL, partner 0.02 µg/mL | 0.937
[4], first compound 0.0018 µg/mL, partner 0.04 µg/mL | 0.345
[4], first compound 0.0035 µg/mL, partner 0.005 µg/mL | ≥ 1
[4], first compound 0.0035 µg/mL, partner 0.01 µg/mL | 0.979
[4], first compound 0.0035 µg/mL, partner 0.02 µg/mL | 0.874
[4], first compound 0.0035 µg/mL, partner 0.04 µg/mL | 0.189
[4], first compound 0.007 µg/mL, partner 0.005 µg/mL | 0.979
[4], first compound 0.007 µg/mL, partner 0.04 µg/mL | 0.0612

Details | Bliss interaction score
[5] | 0.0466
[6] | 0.0453
[7] | 0.0747
[8] | -0.116
